The test system of experiment [1] is KARPAS-422 (EZH2 Y641N mutation). Nature of the experiment: Cell growth inhibition test, KARPAS-422. In kind it is cell-based. To be noted: KARPAS-422, culture time 7 days, read-out: Cell growth inhibitory activity (GI50, nM) KARPAS-422 (EZH2 Y641N mutation). How it is done: Each type of the cultured cells was seeded in 6-well plates or 48-96 well plates, and subculture or medium replacement was performed every 3 to 4 days. Next, the cells were subcultured for a total of 7 to 14 days, and then seeded in 96-well plates. 3 to 5 days before the measurement of the effect, the cells were seeded in 96-well plates, and then the absorbance (Tz) on the day of seeding was measured. The absorbance after the reaction was measured by the plate reader device Synergy NeoAlpha (Biotek) using Cell-Titer-Glo Cell Viability Assay (Promega, G7573) according to the attached manual. Based on the absorbance (Tz) measured on the seeding day and the absorbance of each of the DMSO-treated group (C) and the sample-added group (Ti) measured on the day of effect determination, the percentage of cell proliferation inhibition was calculated according to the following Equation 1. [(Ti−Tz)/(C−Tz)]×100 for concentrations for which Ti≥Tz […] for concentrations for which Ti<Tz. [Equation 1]

A further experiment has as its target EZH2 (Homo sapiens, UniProt Q15910). Nature of the experiment: Inhibitory activity against EZH2 methyltransferase (radiometric scintillation proximity assay).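 Also: Read-out is substrate peptide methylation, captured on streptavidin-coated SPA beads and counted by scintillation, with the reaction run in Tris-HCl buffer at pH 8.0 containing 1% DMSO.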 To be noted: Enzyme inhibitory activity (IC50, nM) EZH2, 2.3 nmol/L enzyme, 90 minutes, room temperature. On the technique in general: Scintillation proximity formats need no separation of bound from free tracer.

Setting [2] is: Homo sapiens, KARPAS-422, 168 h.

Each structure is given as a SMILES string. Read-outs that look alike come from different tables or passages of the source.

Consider 21 molecules from patent US12344618B2, “Heterotricyclic derivative compound and use of same” (HANMI PHARMACEUTICAL CO., LTD., priority 2019, dated 2025).

EZH2, sequence (Q15910 whole entry): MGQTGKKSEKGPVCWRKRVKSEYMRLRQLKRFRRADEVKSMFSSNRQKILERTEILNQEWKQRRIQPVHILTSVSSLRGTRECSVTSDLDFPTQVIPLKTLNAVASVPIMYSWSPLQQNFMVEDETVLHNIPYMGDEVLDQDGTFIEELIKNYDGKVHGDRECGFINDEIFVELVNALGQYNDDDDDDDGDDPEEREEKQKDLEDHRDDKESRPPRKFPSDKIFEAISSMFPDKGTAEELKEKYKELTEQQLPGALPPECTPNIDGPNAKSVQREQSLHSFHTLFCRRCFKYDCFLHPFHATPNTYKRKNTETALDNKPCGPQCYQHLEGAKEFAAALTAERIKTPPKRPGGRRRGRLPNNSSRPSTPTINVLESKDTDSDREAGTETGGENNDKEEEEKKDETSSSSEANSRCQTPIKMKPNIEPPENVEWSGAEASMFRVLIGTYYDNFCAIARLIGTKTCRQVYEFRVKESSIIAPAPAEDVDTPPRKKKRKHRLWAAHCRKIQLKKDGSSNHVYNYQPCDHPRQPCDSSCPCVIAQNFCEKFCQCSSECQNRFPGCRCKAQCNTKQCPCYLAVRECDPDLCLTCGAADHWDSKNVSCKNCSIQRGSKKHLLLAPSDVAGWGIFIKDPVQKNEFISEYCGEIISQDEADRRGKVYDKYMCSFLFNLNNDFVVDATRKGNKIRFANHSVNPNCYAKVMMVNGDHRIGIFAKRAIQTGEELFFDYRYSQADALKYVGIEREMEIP
EZH2, sequence (O75530 whole entry partner): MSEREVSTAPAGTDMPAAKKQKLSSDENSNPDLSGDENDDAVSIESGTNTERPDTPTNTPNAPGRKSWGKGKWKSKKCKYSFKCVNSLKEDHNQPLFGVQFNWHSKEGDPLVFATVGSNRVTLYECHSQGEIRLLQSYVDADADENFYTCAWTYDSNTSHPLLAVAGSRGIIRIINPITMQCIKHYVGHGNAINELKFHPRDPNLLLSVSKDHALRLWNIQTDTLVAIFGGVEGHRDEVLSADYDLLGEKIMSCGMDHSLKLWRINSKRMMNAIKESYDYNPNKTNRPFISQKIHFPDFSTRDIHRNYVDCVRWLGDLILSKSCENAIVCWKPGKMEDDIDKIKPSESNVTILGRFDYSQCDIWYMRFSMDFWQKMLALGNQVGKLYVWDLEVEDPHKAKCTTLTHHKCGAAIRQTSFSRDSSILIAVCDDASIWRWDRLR
EZH2, sequence (Q15022 whole entry partner): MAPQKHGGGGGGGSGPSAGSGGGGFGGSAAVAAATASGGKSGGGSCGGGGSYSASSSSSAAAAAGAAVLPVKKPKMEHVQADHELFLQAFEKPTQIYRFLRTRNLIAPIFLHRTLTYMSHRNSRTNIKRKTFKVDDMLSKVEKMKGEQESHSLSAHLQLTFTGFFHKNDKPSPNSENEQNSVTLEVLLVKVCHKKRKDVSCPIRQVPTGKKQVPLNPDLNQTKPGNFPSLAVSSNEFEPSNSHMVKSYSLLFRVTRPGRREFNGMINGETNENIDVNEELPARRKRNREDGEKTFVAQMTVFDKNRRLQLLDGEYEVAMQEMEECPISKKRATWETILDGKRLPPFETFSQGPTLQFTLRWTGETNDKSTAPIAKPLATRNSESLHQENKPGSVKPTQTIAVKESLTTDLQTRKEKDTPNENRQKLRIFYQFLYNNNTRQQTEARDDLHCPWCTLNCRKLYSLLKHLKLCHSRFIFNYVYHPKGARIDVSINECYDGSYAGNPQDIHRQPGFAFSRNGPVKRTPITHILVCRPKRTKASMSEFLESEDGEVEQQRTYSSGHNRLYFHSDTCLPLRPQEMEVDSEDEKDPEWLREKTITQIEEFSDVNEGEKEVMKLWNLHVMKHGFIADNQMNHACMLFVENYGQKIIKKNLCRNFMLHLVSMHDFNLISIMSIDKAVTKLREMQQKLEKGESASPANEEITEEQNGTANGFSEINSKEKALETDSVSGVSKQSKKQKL
EZH2, sequence (Q09028 whole entry partner): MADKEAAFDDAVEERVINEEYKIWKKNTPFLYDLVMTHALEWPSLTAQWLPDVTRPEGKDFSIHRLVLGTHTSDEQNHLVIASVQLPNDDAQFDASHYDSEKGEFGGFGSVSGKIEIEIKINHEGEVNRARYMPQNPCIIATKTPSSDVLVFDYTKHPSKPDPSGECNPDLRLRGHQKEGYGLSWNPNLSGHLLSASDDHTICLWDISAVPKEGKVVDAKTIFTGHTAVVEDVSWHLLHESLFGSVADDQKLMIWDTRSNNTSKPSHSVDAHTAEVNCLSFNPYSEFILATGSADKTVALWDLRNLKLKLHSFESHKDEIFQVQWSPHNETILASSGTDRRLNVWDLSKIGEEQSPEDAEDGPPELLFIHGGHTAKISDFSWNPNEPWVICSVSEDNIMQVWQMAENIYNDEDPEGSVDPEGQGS
EZH2, sequence (Q6ZN18 whole entry partner): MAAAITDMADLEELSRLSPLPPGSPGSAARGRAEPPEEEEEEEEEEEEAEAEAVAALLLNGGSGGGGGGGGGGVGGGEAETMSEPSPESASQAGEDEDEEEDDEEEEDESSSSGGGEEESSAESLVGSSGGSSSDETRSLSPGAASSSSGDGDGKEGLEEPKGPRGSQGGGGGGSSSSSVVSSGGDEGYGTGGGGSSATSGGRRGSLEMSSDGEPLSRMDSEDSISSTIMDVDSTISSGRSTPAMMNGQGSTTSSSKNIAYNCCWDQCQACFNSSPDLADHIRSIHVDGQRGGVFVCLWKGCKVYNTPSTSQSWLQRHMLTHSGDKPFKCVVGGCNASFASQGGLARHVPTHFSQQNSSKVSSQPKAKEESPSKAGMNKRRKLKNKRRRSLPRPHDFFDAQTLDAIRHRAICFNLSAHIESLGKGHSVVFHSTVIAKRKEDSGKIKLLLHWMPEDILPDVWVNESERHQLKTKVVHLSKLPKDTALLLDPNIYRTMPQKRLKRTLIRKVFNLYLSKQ

By GI50 is commonly meant the concentration giving 50% growth inhibition. Consider `Cc1cc(C)c(CN2CCc3c(Cl)c4c(c(C)c3C2=O)OC(C)([C@@H]2CCC[C@H](N(C)C)C2)O4)c(=O)[nH]1` (relative stereo) [Compound 36, 9-chloro-6-((4,6-dimethyl-2-oxo-1,2-dihydropyridin-3-yl)methyl)-2-(cis-3-(dimethylamino)cyclohexyl)-2,4-dimethyl-7,8-dihydro-[1,3]dioxolo[4,5-g]isoquinolin-5(6H)-one], for which the GI50 in experiment [1] (setting [2]) came out at 87 nM.

Regarding `Cc1cc(C)c(CN2CCc3c(Cl)c4c(c(C)c3C2=O)OC(C)([C@@H]2CC[C@H](N(C)C)C2)O4)c(=O)[nH]1` (relative stereo) [Compound 37, 9-chloro-6-((4,6-dimethyl-2-oxo-1,2-dihydropyridin-3-yl)methyl)-2-(cis-3-(dimethylamino)cyclopentyl)-2,4-dimethyl-7,8-dihydro-[1,3]dioxolo[4,5-g]isoquinolin-5(6H)-one], the GI50 in experiment [1] (setting [2]) was found to be 22 nM.

Take `Cc1cc(C)c(CN2CCc3c(C)c4c(c(Cl)c3C2=O)OC(C)([C@H]2CC[C@H](N(C)C)CC2)O4)c(=O)[nH]1` (single isomer, unassigned) [Compound 6, 4-chloro-6-((4,6-dimethyl-2-oxo-1,2-dihydropyridin-3-yl)methyl)-2-(trans-4-(dimethylamino)cyclohexyl)-2,9-dimethyl-7,8-dihydro-[1,3]dioxolo[4,5-g]isoquinolin-5(6H)-one]: the GI50 in experiment [1] was 310 nM.

Take `Cc1cc(C)c(CN2CCc3c(cc4c(c3C)OC(C)([C@H]3CC[C@H](N(C)C)CC3)O4)C2=O)c(=O)[nH]1` (stereo partly drawn) [Compound 3, 6-((4,6-dimethyl-2-oxo-1,2-dihydropyridin-3-yl)methyl)-2-(trans-4-(dimethylamino)cyclohexyl)-2,9-dimethyl-7,8-dihydro-[1,3]dioxolo[4,5-g]isoquinolin-5(6H)-one]: the GI50 in experiment [1] (setting [2]) was determined as 39 nM.

In general, IC50 refers to the concentration that gives 50% inhibition. Read a low IC50 as greater potency in that assay. Consider `Cc1cc(C)c(CN2CCc3c(Cl)c4c(c(C)c3C2=O)OC(C)([C@H]2CC[C@H](N)CC2)O4)c(=O)[nH]1` (stereo partly drawn) [Compound 8, 2-(trans-4-aminocyclohexyl)-9-chloro-6-((4,6-dimethyl-2-oxo-1,2-dihydropyridin-3-yl)methyl)-2,4-dimethyl-7,8-dihydro-[1,3]dioxolo[4,5-g]isoquinolin-5(6H)-one], for which the concentration for 50% growth inhibition (GI50) in experiment [1] (setting [2]) is 13 nM. Moreover, the IC50 at EZH2 came to 3.2 nM.

For the molecule `Cc1cc(C)c(CN2CCc3c(Cl)c4c(c(C)c3C2=O)OC(C)(c2ccc3c(ccn3C)c2)O4)c(=O)[nH]1` (stereo not shown) [Compound 32, 9-chloro-6-((4,6-dimethyl-2-oxo-1,2-dihydropyridin-3-yl)methyl)-2,4-dimethyl-2-(1-methyl-1H-indol-5-yl)-7,8-dihydro-[1,3]dioxolo[4,5-g]isoquinolin-5(6H)-one], the GI50 in experiment [1] (setting [2]) is more than 1000 nM.

In the case of `CO[C@H]1CC[C@H](C2(C)Oc3c(C)c4c(c(Cl)c3O2)CCN(Cc2c(C)cc(C)[nH]c2=O)C4=O)CC1` (stereo partly drawn) [Compound 33, 9-chloro-6-((4,6-dimethyl-2-oxo-1,2-dihydropyridin-3-yl)methyl)-2-(trans-4-methoxycyclohexyl)-2,4-dimethyl-7,8-dihydro-[1,3]dioxolo[4,5-g]isoquinolin-5(6H)-one], the GI50 in experiment [1] (setting [2]) came to 187 nM.

Regarding `Cc1cc(C)c(CN2CCc3c(Cl)c4c(c(C)c3C2=O)OC(C)([C@H]2C[C@H](N(C)C)C2)O4)c(=O)[nH]1` (stereo partly drawn) [Compound 35, 9-chloro-6-((4,6-dimethyl-2-oxo-1,2-dihydropyridin-3-yl)methyl)-2-(trans-3-(dimethylamino)cyclobutyl)-2,4-dimethyl-7,8-dihydro-[1,3]dioxolo[4,5-g]isoquinolin-5(6H)-one], the GI50 in experiment [1] (setting [2]) came out at 57 nM.

As for `Cc1cc(C)c(CN2CCc3c(c(C)c4c(c3-c3ccccc3)OC(C)([C@H]3CC[C@H](N(C)C)CC3)O4)C2=O)c(=O)[nH]1` (stereo partly drawn) [Compound 56, 6-((4,6-dimethyl-2-oxo-1,2-dihydropyridin-3-yl)methyl)-2-(trans-4-(dimethylamino)cyclohexyl)-2,4-dimethyl-9-phenyl-7,8-dihydro-[1,3]dioxolo[4,5-g]isoquinolin-5(6H)-one], the 50% growth inhibitory concentration (GI50) in experiment [1] (setting [2]) stood at 11 nM.

For the molecule `Cc1cc(C)c(CN2CCc3c(c(C)c4c(c3C3=CCCC3)OC(C)([C@H]3CC[C@H](N(C)C)CC3)O4)C2=O)c(=O)[nH]1` (stereo partly drawn) [Compound 57, 9-(cyclopent-1-en-1-yl)-6-((4,6-dimethyl-2-oxo-1,2-dihydropyridin-3-yl)methyl)-2-(trans-4-(dimethylamino)cyclohexyl)-2,4-dimethyl-7,8-dihydro-[1,3]dioxolo[4,5-g]isoquinolin-5(6H)-one], the GI50 in experiment [1] (setting [2]) was determined as 13 nM.

For the molecule `Cc1cc(C)c(CN2CCc3c(c(C)c4c(c3C3CCCC3)OC(C)([C@H]3CC[C@H](N(C)C)CC3)O4)C2=O)c(=O)[nH]1` (stereo partly drawn) [Compound 58, 9-cyclopentyl-6-((4,6-dimethyl-2-oxo-1,2-dihydropyridin-3-yl)methyl)-2-(trans-4-(dimethylamino)cyclohexyl)-2,4-dimethyl-7,8-dihydro-[1,3]dioxolo[4,5-g]isoquinolin-5(6H)-one], in experiment [1] (setting [2]), the GI50 is 13 nM.

For `Cc1cc(C)c(CN2CCc3c(c(C)c4c(c3C3=CCCCC3)OC(C)([C@H]3CC[C@H](N(C)C)CC3)O4)C2=O)c(=O)[nH]1` (stereo partly drawn) [Compound 59, 9-(cyclohex-1-en-1-yl)-6-((4,6-dimethyl-2-oxo-1,2-dihydropyridin-3-yl)methyl)-2-(trans-4-(dimethylamino)cyclohexyl)-2,4-dimethyl-7,8-dihydro-[1,3]dioxolo[4,5-g]isoquinolin-5(6H)-one], the GI50 in experiment [1] (setting [2]) was found to be 28 nM.

For `Cc1cc(C)c(CN2CCc3c(c(C)c4c(c3C3CCCCC3)OC(C)([C@H]3CC[C@H](N(C)C)CC3)O4)C2=O)c(=O)[nH]1` (stereo partly drawn) [Compound 60, 9-cyclohexyl-6-((4,6-dimethyl-2-oxo-1,2-dihydropyridin-3-yl)methyl)-2-(trans-4-(dimethylamino)cyclohexyl)-2,4-dimethyl-7,8-dihydro-[1,3]dioxolo[4,5-g]isoquinolin-5(6H)-one], the GI50 in experiment [1] (setting [2]) was 28 nM.

As for `C=C(C)c1c2c(c(C)c3c1OC(C)([C@H]1CC[C@H](N(C)C)CC1)O3)C(=O)N(Cc1c(C)cc(C)[nH]c1=O)CC2` (stereo partly drawn) [Compound 61, 6-((4,6-dimethyl-2-oxo-1,2-dihydropyridin-3-yl)methyl)-2-(trans-4-(dimethylamino)cyclohexyl)-2,4-dimethyl-9-(prop-1-en-2-yl)-7,8-dihydro-[1,3]dioxolo[4,5-g]isoquinolin-5(6H)-one], in experiment [1] (setting [2]), the GI50 was found to be 4.8 nM.

Turning to `Cc1cc(C)c(CN2CCc3c(c(C)c4c(c3C(C)C)OC(C)([C@H]3CC[C@H](N(C)C)CC3)O4)C2=O)c(=O)[nH]1` (stereo partly drawn) [Compound 62, 6-((4,6-dimethyl-2-oxo-1,2-dihydropyridin-3-yl)methyl)-2-(trans-4-(dimethylamino)cyclohexyl)-9-isopropyl-2,4-dimethyl-7,8-dihydro-[1,3]dioxolo[4,5-g]isoquinolin-5(6H)-one], in experiment [1] (setting [2]), the GI50 came to 6.2 nM.

`CCc1c2c(c(C)c3c1OC(C)([C@H]1CC[C@H](N(C)C)CC1)O3)C(=O)N(Cc1c(C)cc(C)[nH]c1=O)CC2` (stereo partly drawn) [Compound 63, 6-((4,6-dimethyl-2-oxo-1,2-dihydropyridin-3-yl)methyl)-2-(trans-4-(dimethylamino)cyclohexyl)-9-ethyl-2,4-dimethyl-7,8-dihydro-[1,3]dioxolo[4,5-g]isoquinolin-5(6H)-one]: in experiment [1] (setting [2]), the GI50 turned out to be 4.4 nM.

With `Cc1cc(C)c(CN2CCc3c(c(C)c4c(c3-c3ccco3)OC(C)([C@H]3CC[C@H](N(C)C)CC3)O4)C2=O)c(=O)[nH]1` (stereo partly drawn) [Compound 64, 6-((4,6-dimethyl-2-oxo-1,2-dihydropyridin-3-yl)methyl)-2-(trans-4-(dimethylamino)cyclohexyl)-9-(furan-2-yl)-2,4-dimethyl-7,8-dihydro-[1,3]dioxolo[4,5-g]isoquinolin-5(6H)-one], the GI50 in experiment [1] (setting [2]) stood at 5 nM.

With `Cc1cc(C)c(CN2CCc3c(c(C)c4c(c3C3=CCOCC3)OC(C)([C@H]3CC[C@H](N(C)C)CC3)O4)C2=O)c(=O)[nH]1` (stereo partly shown) [Compound 65], in experiment [1] (setting [2]), the 50% growth inhibitory concentration (GI50) worked out at 8.8 nM.

In the case of `Cc1cc(C)c(CN2CCc3c(c(C)c4c(c3-c3cccnc3)OC(C)([C@H]3CC[C@H](N(C)C)CC3)O4)C2=O)c(=O)[nH]1` (stereo partly drawn) [Compound 66, 6-((4,6-dimethyl-2-oxo-1,2-dihydropyridin-3-yl)methyl)-2-(trans-4-(dimethylamino)cyclohexyl)-2,4-dimethyl-9-(pyridin-3-yl)-7,8-dihydro-[1,3]dioxolo[4,5-g]isoquinolin-5(6H)-one], the 50% growth inhibitory concentration (GI50) in experiment [1] (setting [2]) stood at 6.4 nM.

For `Cc1cc(C)c(CN2CCc3c(c(C)c4c(c3-c3cncs3)OC(C)([C@H]3CC[C@H](N(C)C)CC3)O4)C2=O)c(=O)[nH]1` (stereo partly drawn) [Compound 67, 6-((4,6-dimethyl-2-oxo-1,2-dihydropyridin-3-yl)methyl)-2-(trans-4-(dimethylamino)cyclohexyl)-2,4-dimethyl-9-(thiazol-5-yl)-7,8-dihydro-[1,3]dioxolo[4,5-g]isoquinolin-5(6H)-one], the GI50 in experiment [1] (setting [2]) was 4.3 nM.

With `Cc1cc(C)c(CN2CCc3c(c(C)c4c(c3-c3cnn(C)c3)OC(C)([C@H]3CC[C@H](N(C)C)CC3)O4)C2=O)c(=O)[nH]1` (stereo partly drawn) [Compound 68, 6-((4,6-dimethyl-2-oxo-1,2-dihydropyridin-3-yl)methyl)-2-(trans-4-(dimethylamino)cyclohexyl)-2,4-dimethyl-9-(1-methyl-1H-pyrazol-4-yl)-7,8-dihydro-[1,3]dioxolo[4,5-g]isoquinolin-5 (6H)-one], the concentration for 50% growth inhibition (GI50) in experiment [1] (setting [2]) stood at 5.1 nM.
